Where no end group is shown, it is not given here.
How the values were obtained:
Transferrin [1] = target: T1, Transferrin (Homo sapiens, UniProt P02787); assay: Peptide microarray ranking, labeled transferrin with E. coli lysate competitor; assay type: binding
Protocol: Several polypeptides were identified as candidate affinity elements for synbodies against an arbitrarily chosen protein target, transferrin, by incubating transferrin on the polypeptide microarray in the presence of E. coli lysate competitor. Transferrin was randomly direct-labeled at free amines with Alexa™ 555, and E. coli lysate was randomly direct-labeled at free amines with Alexa™ 647. Three replicate arrays were passivized by applying a mixture of BSA and mercaptohexanol for one hour. The arrays were blocked with unlabelled E. coli lysate for one hour, then washed three times with TBST (0.05% Tween) followed by three times with water. A mixture of labeled transferrin and labeled E. coli lysate was applied to the three replicate arrays and incubated for three hours. The arrays were again washed three times with TBST (0.05% Tween) followed by three times with water, and scanned at 555 nm and 647 nm using an array reader. Polypeptides were ranked as candidates for inclusion as affinity elements of synbodies by computing a score for each polypeptide equal to the mean raw 555 nm intensity over the six replicate features, squared, divided by the mean raw 647 nm intensity over the six replicate features. This simple scoring function tends to favor candidate polypeptides that bind at least moderate affinity, since otherwise the 555 nm intensity would be relatively lower, and that are relatively specific, since otherwise the 647 nm intensity would be relatively higher and contribute to a relatively lower score. Many variations of this ranking and identification process can be used, such as, by way of non-limiting examples, two-color comparisons against other competitors; comparisons with data taken in separate experiments with respect to other targets; and use of scoring functions taking into account other factors, employing other functional relationships, and/or involving statistical analysis and/or preprocessing of data and/or correcting for background fluorescence and/or other factors affecting the accuracy of the measured intensities. Ten polypeptides (Table 1) were identified for further evaluation for use as affinity elements in synbodies by choosing the polypeptides having the highest score (one polypeptide was rejected as difficult to synthesize, so the polypeptides chosen were ten of those having the eleven highest scores).
After preparation of the array in accordance with the methods previously described in Example 2, the array was washed one time for five minutes in 7.33% acetonitrile, 37% isopropanol, 0.55% trifluoroacetic acid, and 55% water. Alexa 555 labeled target protein transferrin was applied, together with Alexa 647 labeled E. coli lysate competitor, to the prewashed array and to an identical array without organic prewash. […] 5,010 on the array without organic prewash, but ranked no. 9601 on the prewashed array. Conversely, peptide TRF-21, shown by SPR analysis to be a relatively strong binder of transferrin, rose in rank from 84 on the non-prewashed array to rank no. 5 on the prewashed array.

Transferrin [2] = target: T1, Transferrin; assay: Affinity characterization of TRF26 lead and selected mutants; assay type: binding
Protocol: Two TRF26 point-mutants (P6Y, H12F) were selected for further affinity characterization. The P6Y and H12F point-mutants have dissociation constants of 8.6±1.6 μM and 9.8±1.6 μM respectively. […] A TRF26 double mutant sequence containing the P6Y+H12F mutations was synthesized and characterized.

Transferrin [3] = target: T1, Transferrin; assay: SPR solution phase KD of candidate affinity elements, transferrin immobilized (Biacore T100); assay type: binding; conditions: steady-state response, 25° C., PBST
Protocol: Transferrin 25 μg/ml in immobilization buffer selected for correct pH was then applied 302 at a flow rate of 5 to 10 μl/min for a contact time of about 5 to 10 minutes, allowing the amine functionality on the transferrin 308 to displace the activated NHS ester and bond to the surface via an amide bond. Finally, ethylene diamine (1M ethylene diamine-HCl at pH 8.5) was applied 304 at a flow rate of 5 to 10 μl/min for a contact time of about 6 to 7 minutes to deactivate any remaining reactive groups on the dextran chip surface. Flow rates and contact times are adjusted as necessary to provide the surface concentration of target desired for the intended application, and may vary by target. In general, for evaluating whether binding occurs, it is preferable to immobilize a relatively large quantity of target, and higher flow rates and/or longer contact times may be used. For determining kinetics, it is preferable to limit the amount of target immobilized so as to minimize rebinding and avidity effects, and lower flow rates and/or contact times may be used.
Candidate affinity elements for the transferrin synbody TRF19, TRF21, TRF23, TRF24, TRF25, and TRF26 were individually evaluated for solution phase KD with respect to transferrin by SPR analysis. Because the off rates for these polypeptides were very high, KD values were estimated by measuring steady-state response for at least five concentrations in a two-fold dilution series, each concentration tested in duplicate. For each experiment, response data were processed using a reference surface to correct for bulk refractive index changes and any non-specific binding. Data were also double referenced using responses from blank running buffer injections. Each experiment was conducted at 25° C. using PBST (0.01M Phosphate Buffered Saline, 0.138M NaCl, 0.0027M KCl, 0.05% surfactant Tween20, pH 7.4) as the running buffer on a Biacore T100 instrument. Analytes were injected for 60 s at a flow rate of 30 μl/min. The antigen surfaces were regenerated with 30 s consecutive pulses of NaOH/NaCl (50 mM NaOH in 1M NaCl) and Glycine (10 mM glycine-HCl, pH 2.5).

Transferrin [4] = target: T1, Transferrin; assay: SPR analysis of peptide pairs for binding to distinct sites on target; conditions: peptides applied in 1:1 mixtures in pairs
Text: The transferrin target was immobilized on a Biacore T100 SPR chip, and candidate polypeptides were applied in 1:1 mixtures in pairs and response data obtained, in accordance with the methods described in Example 4 above. As illustrated in FIGS. 12A-D, upon flowing candidate polypeptides over the immobilized target, ideally one polypeptide applied alone would bind to a first binding site on the target and produce a first characteristic SPR response level (FIG. 12A), the other polypeptide would bind to a second, distinct binding site on the target, producing a second characteristic response level (FIG. 12B), and a mixture of the two polypeptides together (at the same concentrations as before) would produce a response level approximating the sum of the response levels produced by each polypeptide alone, as the polypeptides bind to distinct binding sites (FIG. 12C).

TNF-α [5] = target: T2, TNF-α (Homo sapiens, UniProt P01375); assay: SPR of TNF1 lead and mutant peptides on captured TNF-α (Biacore A100); assay type: binding; conditions: several sensorgrams; read-out: Kd determined from kinetic fits
TNF-α [6] = target: T2, TNF-α; assay: as above; assay type: binding
Text: Scanning Mutagenesis of the TNF1 Lead Peptide. After lead identification, the next step in the AMPLI algorithm is characterization of point mutations in the lead heteropolymer. Using short peptides makes it chemically feasible to synthesize a significant fraction of the point-mutant space, which can then be screened for enhanced point mutations. For example, all possible point mutations in the 17 randomized positions using all 20 natural amino acids could be synthesized and screened within a single 384-well plate (323 total point-mutants). However, libraries containing all 20 natural amino acids are not required for affinity optimization of protein-protein interactions. A library of TNF1 point-mutants containing all substitutions of the amino acid set {Y, A, D, S, K, N, V, W} in each of the 17 randomized positions (132 unique point-mutants) was synthesized. Tyrosine (Y), alanine (A), aspartic acid (D) and serine (S) were selected because of their effectiveness in producing high affinity interactions when substituted into the complementary-determining regions (CDRs) of synthetic antibodies (Felouse, Proceedings of the National Academy of Sciences 101(34):12467, 2004), lysine (K) was selected to balance the charge in the substitution set, asparagine (N), valine (V) and tryptophan (W) were selected to span the hydropathicity range (Kyte J & Doolittle R F, Journal of Molecular Biology 157(1):105-132, 1982). […] This concentration was used to increase the high-end dynamic range for quantifying enhancing point mutations at the expense of low-end dynamic range for quantifying detrimental point mutations.
Point-mutant libraries were prepared in 96-well stock plates From the stock plate, peptides were diluted to 50 μM concentration in Biacore HBS-EP buffer (GE Healthcare, Piscataway, N.J.) containing 1 mg/ml carboxymethyl-dextran (Sigma-Aldrich, St. Louis, Mo.) to reduce non-specific binding to the CM-5 SPR chip surface. TNF-α was captured on a CM-5 chip surface at different capture levels on spots 1, 2, 4, and 5 across all four flow cells corresponding to a 40-200 RU range of predicted Rmax binding responses. Spot 3 contained only immobilized neutravidin and served as a reference spot.
Using the prepared 96-well plates and Biacore A100 SPR instrument, four peptides were flowed separately, in parallel, through the four flow cells over all 4 TNF-α spots and the neutravidin reference spot, with a 60 second association phase and 300 second dissociation phase. SPR sensorgrams were recorded for each peptide response with all 4 TNF-α spots and the neutravidin reference spot across the four flow cells on the SPR chip. Surface regeneration was performed after every 12 injections in each flow cell with Biacore Glycine 2.5 regeneration solution (GE Healthcare, Piscataway, N.J.). Point-mutant reference subtracted, peptide molecular weight adjusted, responses at the late binding region of the sensorgram (a few seconds before dissociation) were compared to the response of the TNF1 lead
Purified point-mutant affinities were measured on the Biacore A100 using SPR equilibrium binding response across a series of peptide concentrations on an SPR chip with TNF-α captured as described above.
These sequences were synthesized and purified using standard solid-phase FMOC synthesis and HPLC purification.

TNF-α [7] = target: T2, TNF-α; assay: Fluorescence anisotropy validation of TNF1-opt affinity; assay type: binding
Protocol: Affinity Characterization of Double, Triple and Quadruple Mutants. […] In all cases, an improvement in TNF-α affinity was observed when an additional enhancing substitution was added to the sequence. Double mutants were better than the corresponding single mutants, triple mutants were better than the corresponding single/double mutants and the quadruple mutant was better than the corresponding single/double/triple mutants (FIG. 71, Table 2).

T2 sequence (P01375 77-233 limits assumed, species assumed): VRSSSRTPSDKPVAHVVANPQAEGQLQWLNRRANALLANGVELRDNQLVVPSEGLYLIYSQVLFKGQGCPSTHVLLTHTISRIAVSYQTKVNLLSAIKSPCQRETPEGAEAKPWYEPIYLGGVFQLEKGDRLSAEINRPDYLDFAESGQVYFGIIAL
T1 sequence (P02787 20-698): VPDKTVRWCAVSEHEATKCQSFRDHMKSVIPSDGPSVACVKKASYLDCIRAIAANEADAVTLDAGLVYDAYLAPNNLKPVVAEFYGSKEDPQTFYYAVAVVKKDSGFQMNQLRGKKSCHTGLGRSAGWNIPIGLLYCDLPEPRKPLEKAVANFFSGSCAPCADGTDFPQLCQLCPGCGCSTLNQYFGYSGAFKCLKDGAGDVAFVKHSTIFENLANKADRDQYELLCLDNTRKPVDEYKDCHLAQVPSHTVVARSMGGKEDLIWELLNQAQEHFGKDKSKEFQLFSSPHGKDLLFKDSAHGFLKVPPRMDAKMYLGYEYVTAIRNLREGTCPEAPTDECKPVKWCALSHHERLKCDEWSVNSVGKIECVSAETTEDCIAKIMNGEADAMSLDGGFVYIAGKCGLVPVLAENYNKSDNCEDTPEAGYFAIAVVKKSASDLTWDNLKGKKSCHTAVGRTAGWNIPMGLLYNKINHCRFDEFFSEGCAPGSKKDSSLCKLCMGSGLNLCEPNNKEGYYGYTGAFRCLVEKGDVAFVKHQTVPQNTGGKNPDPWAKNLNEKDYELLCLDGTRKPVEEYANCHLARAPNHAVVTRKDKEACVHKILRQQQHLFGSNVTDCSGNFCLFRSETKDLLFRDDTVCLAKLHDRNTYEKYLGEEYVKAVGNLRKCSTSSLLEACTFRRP

Sequence: AHKVVPQRQIRHAYNRYGSC [TRF26]
- Rank -- prewash (Transferrin [1]; array with organic prewash): 436
- Rank - non-prewash (Transferrin [1]; array without organic prewash): 596
- Binding ΔG (observed) (Transferrin [2]): -5.56 ± 0.10 kcal/mol
- Kd (Transferrin [3]): ~100 µM
- binding to distinct sites on transferrin (Transferrin [4]): bind distinct sites on transferrin

Sequence: FERSYLKMPWKFLQSRQGSC [TNF1-opt]
- Kd (TNF-α [5]): 0.7 ± 0.02 µM
- Kd Fold-Change Relative to Lead (TNF-α [6]): 100 ± 22
- Kd (TNF-α [6]; SPR equilibrium binding response, read-out: Kd (observed)): 1.6 ± 0.3 µM
- Binding ΔG (observed) (TNF-α [6]; calculated from dissociation constants): -7.97 ± -0.11 kcal/mol
- Kd (TNF-α [6]; energetic additivity of component mutations, read-out: Predicted Kd): 0.7 to 1.9 µM
- Kd (TNF-α [7]): 1.1 ± 0.2 µM
